# Key:
# Type in all cases: cell-based
# [1] = system: S. aureus, E. faecalis, E. faecium, S. pyogenes, S. epidermidis and S. pneumoniae; assay: Bactericidal activity
# Procedure: (§1) Compounds of the present invention were tested for antibacterial activity against a variety of pathogenic organisms including S. aureus, S. pneumoniae, S. pyogenes, E. faecalis, H. influenza and M. catarrhalis using a standard broth microdilution method to determine their minimum inhibitory concentrations (MICs). All compounds were tested using standard methods in accordance with CLSI guidelines (Clinical and Laboratory Standards Institute). Compounds described in Examples 1, 3-6, 8, 10-17, 19-21, 24-31, 33, 36, 38, 40, 54, 56-57, 59-71, 74-105, 107-108, 110-112, 114, 117-120, 122-142, 144-159, 162-179, 181-182, 184-225, 227-242, 244-319, 321-355, and 357-475 had MIC's of <0.12-4.0 μg/mL against some strains of the major Gram-positive organisms S. aureus, S. pneumoniae, S. pyogenes, and E. faecalis. […] Compounds described in Examples 11, 54, 60, and 208 shown to be bactericidal in S. aureus, E. faecalis, E. faecium, S. pyogenes, S. epidermidis and S. pneumoniae.
# [2] = system: MRSA, VISA, linezolid-resistant S. aureus, resistant S. epidermidis, S. pyogenes, S. pneumoniae, E. faecalis (VRE) and E. faecium; assay: MIC against drug-resistant Gram-positive strains; conditions: MRSA, VISA, linezolid-resistant S. aureus, resistant S. epidermidis, S. pyogenes, S. pneumoniae, E. faecalis (VRE), E. faecium
# Procedure: as §1
# (§2) Compounds of the present invention were not compromised by existing resistance to all drug classes tested, including β-lactams, glycopeptides, oxazolidinones, macrolides, and fluoroquinolones. In particular, compounds described in Examples 11, 54, 60, and 208 were active against methicillin-(oxacillin-) resistant S. aureus (MRSA), vancomycin-intermediate S. aureus (VISA), linezolid-resistant S. aureus, methicillin-(oxacillin-) resistant and mupirocin resistant S. epidermidis, macrolide-resistant S. pyogenes, macrolide-, penicillin-, and levofloxacin-resistant S. pneumoniae, vancomycin-, macrolide-, and ciprofloxacin-resistant E. faecalis (VRE) and vancomycin-, macrolide-, and ciprofloxacin-resistant E. faecium.
# [3] = MIC against drug-resistant Gram-positive strains; conditions: read-out: MIC in clinically relevant resistant strains
# Procedure: as §1, §2
# [4] = MIC90 against resistant Gram-positive bacteria
# Procedure: as §1
SMILES,bactericidal [1],activity against drug-resistant strains [2],MIC [3] [µg/mL],MIC90 [4] [µg/mL]
"Cc1noc(C)c1C(=O)N(C)Cc1csc(NC(=O)NCc2ccc(Cl)c(Cl)c2)n1 [Example 11, N-((2-(3-(3,4-dichlorobenzyl)ureido)thiazol-4-yl)methyl)-N,3,5-trimethylisoxazole-4-carboxamide]",bactericidal,active,0.25 to 4,
"Cc1noc(C)c1C(=O)N(C)Cc1csc(NC(=O)NCc2cccc(F)c2)n1 [Example 54, N-((2-(3-(3-fluorobenzyl)ureido)thiazol-4-yl)methyl)-N,3,5-trimethylisoxazole-4-carboxamide]",bactericidal,active,0.25 to 4,1 to 4
"CCc1noc(C)c1C(=O)N(C)Cc1csc(NC(=O)NCc2cccc(F)c2)n1 [Example 60, 3-ethyl-N-((2-(3-(3-fluorobenzyl)ureido)thiazol-4-yl)methyl)-N,5-dimethylisoxazole-4-carboxamide]",bactericidal,active,0.25 to 4,1 to 4
"Cc1ncnc(C)c1C(=O)N(C)Cc1csc(NC(=O)NCc2cccc(F)c2)n1 [Example 96, N-((2-(3-(3-fluorobenzyl)ureido)thiazol-4-yl)methyl)-N,4,6-trimethylpyrimidine-5-carboxamide]",,,,1 to 4
"Cc1noc(C)c1C(=O)N(C)Cc1csc(NC(=O)NCc2ccc(Cl)s2)n1 [Example 107, N-((2-(3-((5-chlorothiophen-2-yl)methyl)ureido)thiazol-4-yl)methyl)-N,3,5-trimethylisoxazole-4-carboxamide]",,,,1 to 4
"CN(Cc1csc(NC(=O)NCc2cccc(F)c2)n1)C(=O)c1cc(O)nnc1Cl [Example 208, 3-Chloro-6-hydroxy-pyridazine-4-carboxylic acid {2-[3-(3-fluoro-benzyl)-ureido]-thiazol-4-ylmethyl}-methyl-amide]",bactericidal,active,0.25 to 4,1 to 4
"Cc1noc(C)c1C(=O)N(C)C(C#N)c1csc(NC(=O)NCc2cccc(F)c2)n1 (stereo not drawn) [Example 214, 3,5-Dimethyl-isoxazole-4-carboxylic acid (cyano-{2-[3-(3-fluoro-benzyl)-ureido]-thiazol-4-yl}-methyl)-methyl-amide]",,,,1 to 4

# — patent US8148380B2, “Antibacterial amide and sulfonamide substituted heterocyclic urea compounds” (priority 2007, dated 2012)
